Here are results for 26 molecules from US8673908B2, “Kynurenine production inhibitor” (Kyowa Hakko Kirin Co., Ltd., priority 2008, dated 2014).

The structures appear in SMILES notation.

This assay deals with kynurenine production in IFN-γ-treated KATO-III cells. Description: Inhibitory activity on kynurenine production (Test Example 1). The following applies: Homo sapiens, IFN-γ treatment, culture for 96 hours, read-out: IC50 value, inhibition of kynurenine production. In kind it is cell-based. In short, it runs like this:
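Read-out is absorbance at 480 nm of medium treated with trichloroacetic acid, then p-dimethylaminobenzaldehyde, to quantify kynurenine. DMSO-only wells with and without IFN-γ serve as references. Cells were KATO-III, 2,000 per well, 96 h at 37 °C/5% CO2 with compound (DMSO ≤0.1%) and IFN-γ at 31.25 ng/mL in the added suspension.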

The term IC50 denotes the concentration that inhibits the measured activity by half.

On to `O=S(=O)(Nc1nc2ccccc2nc1OC(c1nccs1)C(F)(F)F)c1cccc(Cl)c1Cl` (centres unmarked) [Compound 99, 2,3-dichloro-N-{3-[2,2,2-trifluoro-1-(thiazol-2-yl)ethoxy]-quinoxalin-2-yl}benzenesulfonamide], for which the IC50 is less than 1000 nM.
Take `CCCS(=O)(=O)Nc1nc2ccccc2nc1OC(c1cnc(C)s1)C(F)(F)F` (centres unmarked) [Compound 315, N-{3-[2,2,2-trifluoro-1-(2-methylthiazol-5-yl)ethoxy]-quinoxalin-2-yl}propane-1-sulfonamide]: the IC50 was less than 1000 nM.
Take `COc1cncc(C(Oc2nc3ccccc3nc2NS(=O)(=O)c2ccccc2Cl)C(F)(F)F)c1` (centres unmarked) [Compound 71, 2-chloro-N-{3-[2,2,2-trifluoro-1-(5-methoxypyridin-3-yl)-ethoxy]quinoxalin-2-yl}benzenesulfonamide]: the IC50 is less than 1000 nM.
In the case of `Cc1ccc(S(=O)(=O)Nc2nc3ccccc3nc2OCc2ccc3ccccc3c2)cc1` [Compound 13, N-{3-[(2-naphthyl)methoxy]quinoxalin-2-yl}-4-toluenesulfonamide] it was 1000 to 10000 nM; in that of `O=S(=O)(Nc1nc2ccccc2nc1OCc1ccncc1)c1cccc(Cl)c1Cl` [Compound 26, 2,3-dichloro-N-{3-[(pyridin-4-yl)methoxy]quinoxalin-2-yl}-benzenesulfonamide], 1000 to 10000 nM; in that of `O=S(=O)(Nc1nc2ccccc2nc1OC(C1CC1)C(F)(F)F)c1ccccc1Cl` (centres unmarked) [Compound 117, 2-chloro-N-[3-(1-cyclopropyl-2,2,2-trifluoroethoxy)-quinoxalin-2-yl]benzenesulfonamide], less than 1000 nM.
For `CCCS(=O)(=O)Nc1nc2ccccc2nc1OC(C(F)(F)F)C(F)(F)F` [Compound 322, N-{3-[(1,1,1,3,3,3-hexafluoropropan-2-yl)oxy]quinoxalin-2-yl}propane-1-sulfonamide], the IC50 was less than 1000 nM.
On to `O=S(=O)(Nc1nc2ccccc2nc1OC(c1cncs1)C(F)(F)F)c1ccccc1Cl` (centres unmarked) [Compound 113, 2-chloro-N-{3-[2,2,2-trifluoro-1-(thiazol-5-yl)ethoxy]-quinoxalin-2-yl}benzenesulfonamide], for which the IC50 is less than 1000 nM.
With `CC(C)(F)C(Oc1nc2ccccc2nc1NS(=O)(=O)c1cccc(Cl)c1Cl)c1cccnc1` (centres unmarked) [Compound 39, 2,3-dichloro-N-{3-[2-fluoro-2-methyl-1-(pyridin-3-yl)-propoxy]quinoxalin-2-yl}benzenesulfonamide] the figure was less than 1000 nM; with `O=S(=O)(Nc1nc2cc3ccccc3cc2nc1OC(c1cccnc1)C(F)(F)F)c1ccccc1Cl` (centres unmarked) [Compound 263, 2-chloro-N-{3-[2,2,2-trifluoro-1-(pyridin-3-yl)ethoxy]-benzo[g]quinoxalin-2-yl}benzenesulfonamide], less than 1000 nM; with `O=S(=O)(Nc1nc2cc(Cl)c(Cl)cc2nc1OC(c1cccnc1)C(F)(F)F)c1ccccc1Cl` (centres unmarked) [Compound 264, 2-chloro-N-{6,7-dichloro-3-[2,2,2-trifluoro-1-(pyridin-3-yl)ethoxy]quinoxalin-2-yl}benzenesulfonamide], less than 1000 nM.
As for `CC(C)(Oc1nc2ccccc2nc1NS(=O)(=O)c1ccccc1Cl)c1cccnc1` [Compound 91, 2-chloro-N-{3-[1-methyl-1-(pyridin-3-yl)ethoxy]quinoxalin-2-yl}benzenesulfonamide], the IC50 was in the range of 1000 to 10000 nM.
Take `O=S(=O)(Nc1nc2ccccc2nc1OC(c1cccnc1)C(F)(F)F)c1cccc(Cl)c1` (centres unmarked) [Compound 181, 3-chloro-N-{3-[2,2,2-trifluoro-1-(pyridin-3-yl)ethoxy]-quinoxalin-2-yl}benzenesulfonamide]: the concentration for half-maximal inhibition (IC50) was less than 1000 nM.
Take `O=S(=O)(Nc1nc2ccccc2nc1OC(c1cccnc1)C(F)(F)F)c1cccnc1` (centres unmarked) [Compound 139, N-{3-[2,2,2-trifluoro-1-(pyridin-3-yl)ethoxy]quinoxalin-2-yl}pyridine-3-sulfonamide]: the concentration for half-maximal inhibition (IC50) was less than 1000 nM.
Take `CN(C)S(=O)(=O)Nc1nc2ccccc2nc1OC(c1cccnc1)C(F)(F)F` (centres unmarked) [Compound 174, N-{3-[2,2,2-trifluoro-1-(pyridin-3-yl)ethoxy]quinoxalin-2-yl}-N′,N′-dimethyl-sulfuric diamide]: the IC50 was less than 1000 nM.
With `Cc1noc(C)c1S(=O)(=O)Nc1nc2ccccc2nc1OC(C1CCSCC1)C(F)(F)F` (centres unmarked) [Compound 131, 3,5-dimethyl-N-{3-[2,2,2-trifluoro-1-(tetrahydro-2H-thiopyran-4-yl)ethoxy]quinoxalin-2-yl}isoxazole-4-sulfonamide], the IC50 was less than 1000 nM.
As to `CCCNS(=O)(=O)Nc1nc2ccccc2nc1OC(C1CCN(C)CC1)C(F)(F)F` (centres unmarked) [Compound 328, N-propyl-N′-{3-[2,2,2-trifluoro-1-(1-methylpiperidin-4-yl)ethoxy]quinoxalin-2-yl}sulfuric diamide], the half-maximal inhibitory concentration (IC50) lay within 1000 to 10000 nM.
In the case of `CCCS(=O)(=O)Nc1nc2ccccc2nc1OC(c1cncc(F)c1)C(F)(F)F` (centres unmarked) [Compound 332, N-{3-[2,2,2-trifluoro-1-(5-fluoropyridin-3-yl)ethoxy]-quinoxalin-2-yl}propane-1-sulfonamide], the IC50 was less than 1000 nM.
Consider `O=S(=O)(Nc1cc2ccccc2nc1OC(c1cccnc1)C(F)(F)F)c1ccccc1Cl` (centres unmarked) [Compound 360, 2-chloro-N-{2-[2,2,2-trifluoro-1-(pyridin-3-yl)ethoxy]-quinolin-3-yl}benzenesulfonamide], for which the IC50 is 1000 to 10000 nM.
In the case of `Cc1ccc(C(Oc2nc3ccccc3nc2NS(=O)(=O)NC2CC2)C(F)(F)F)cn1` (centres unmarked) [Compound 285, N-{3-[2,2,2-trifluoro-1-(6-methylpyridin-3-yl)ethoxy]-quinoxalin-2-yl}-N′-cyclopropyl-sulfuric diamide], the 50% inhibitory concentration (IC50) is less than 1000 nM.
As to `O=S(=O)(Nc1nc2ccccc2nc1OC(c1ccncc1)C(F)(F)F)c1ccccc1Cl` (centres unmarked) [Compound 49, 2-chloro-N-{3-[2,2,2-trifluoro-1-(pyridin-4-yl)ethoxy]quinoxalin-2-yl}benzenesulfonamide], the IC50 is less than 1000 nM.
As for `O=S(=O)(Nc1nc2ccccc2nc1OC(c1cccs1)C(F)(F)F)c1cccc(Cl)c1Cl` (centres unmarked) [Compound 100, 2,3-dichloro-N-{3-[2,2,2-trifluoro-1-(thiophen-2-yl)-ethoxy]quinoxalin-2-yl}benzenesulfonamide], the IC50 was less than 1000 nM.
In the case of `CCC(=O)C(CC)Oc1nc2ccccc2nc1NS(=O)(=O)c1ccccc1Cl` (centres unmarked) [Compound 237, 2-chloro-N-[3-(4-oxohexan-3-yloxy)quinoxalin-2-yl]benzenesulfonamide] it was less than 1000 nM; in that of `CCNS(=O)(=O)Nc1nc2ccccc2nc1OC(c1cccnc1)C(F)(F)F` (centres unmarked) [Compound 195, N-ethyl-N′-{3-[2,2,2-trifluoro-1-(pyridin-3-yl)ethoxy]-quinoxalin-2-yl}sulfuric diamide], less than 1000 nM; in that of `CCCS(=O)(=O)Nc1nc2ccccc2nc1OC(c1csc(C)n1)C(F)(F)F` (centres unmarked) [Compound 344, N-{3-[2,2,2-trifluoro-1-(2-methylthiazol-4-yl)ethoxy]-quinoxalin-2-yl}propane-1-sulfonamide], less than 1000 nM.
Turning to `O=S(=O)(Nc1nc2ccccc2nc1OC(c1cnc(-c2ccccc2)s1)C(F)(F)F)c1ccccc1Cl` (centres unmarked) [Compound 134, 2-chloro-N-{3-[2,2,2-trifluoro-1-(2-phenylthiazol-5-yl)-ethoxy]quinoxalin-2-yl}benzenesulfonamide], the IC50 was less than 1000 nM.
